Structures can show the parent of a compound that is named as a salt.
Tests used:
[1] = Physicochemical properties: solubility of the mangiferin-6-O-calcium salt
From the text: The mangiferin-6-O-calcium salt has the following structural formula: […]

[2] = Acceleration test (accelerated stability); format: physicochemical; conditions: for Content / Morphology: 40°C±2°C, 75% RH±5% RH, sealed aluminum plastic bag
Description: (§1) Test method: A sample of the mangiferin-6-O-calcium salt raw material was sealingly packaged with an aluminum plastic composition bag, placed at 40° C.±2° C. and 75% RH±5% RH conditions, pieces of the sample were taken at the time of 0, 3 and 6 months and the morphology and content thereof were tested.

[3] = Room temperature long-term stability test; format: physicochemical; conditions: for Content / Morphology: 25°C±2°C, 60% RH±5% RH, sealed aluminum plastic bag
Description: as §1, with “at 25°” for “at 40°”, “and 60%” for “and 75%”, “0, 3, 6, 9” for “0, 3”, “and 12” for “and 6”

Q: Which results are given for O=c1c2cc(O)c(O)cc2oc2cc(O)c(C3OC(CO)C(O)C(O)C3O)c(O)c12 (stereo not drawn) [mangiferin-6-O-calcium salt]?
A: Solubility in diluted hydrochloric acid solution ([1]; diluted hydrochloric acid solution): slightly soluble; Solubility in hot water ([1]; hot water): soluble; Solubility in water ([1]; water): slightly soluble; Content ([2]; batch 140618, 0 month): 84.5%; Morphology ([2]; batch 140618, 0 month): Light yellow-; Content ([2]; batch 140618, 3 months): 84.5%; Morphology ([2]; batch 140618, 3 months): Light yellow-; Content ([2]; batch 140618, 6 months): 84.2%; Morphology ([2]; batch 140618, 6 months): Light yellow-; Stability conclusion, acceleration test ([2]; acceleration test condition for 6 months): stable properties; Content ([3]; batch 140618, 0 month): 84.5%; Morphology ([3]; batch 140618, 0 month): Light yellow-green; Content ([3]; batch 140618, 3 months): 84.5%; Morphology ([3]; batch 140618, 3 months): Light yellow-green; Content ([3]; batch 140618, 6 months): 84.3%; Morphology ([3]; batch 140618, 6 months): Light yellow-; Content ([3]; batch 140618, 9 months): 84.6%; Morphology ([3]; batch 140618, 9 months): Light yellow-; Content ([3]; batch 140618, 12 months): 84.2%; Morphology ([3]; batch 140618, 12 months): Light yellow-; Stability conclusion, room temperature ([3]; room temperature condition for 12 months): stable properties

Reference: US10538547B2, “Mangiferin-6-O-calcium salt and preparation process thereof” (CHANGZHOU DEZE MEDICAL SCIENCE CO., LTD, priority 2016, dated 2020)
